From US12129490B2, “Methods for generating hepatocytes and cholangiocytes from pluripotent stem cells” (UNIVERSITY HEALTH NETWORK, priority 2018, dated 2024)

Tests used:
[1] = test system: hESC-derived embryoid bodies; test: Endoderm induction in hESC-derived embryoid bodies, flow cytometry; format: cell-based, human; conditions: day six EBs
Method: Similar to protocols using monolayer cultures^16, it involves specific steps that recapitulate the critical stages of liver development in the early embryo. EBs are formed from small aggregates by culture for 24 hours in low levels of BMP4, as previously described^18. The EBs are subsequently exposed to high concentrations of activin A (hereafter referred to as activin) for five days to induce definitive endoderm, a population defined by expression of the surface markers CXCR4, CKIT and EPCAM and the transcription factors SOX17 and FOXA2.
Addition of Wnt3A to the activin-induced EB cultures led to reproducible increases in the proportion of CXCR4^+, SOX17^+ and FOXA2^+ cells within the EBs (FIG. 1c). With the increase in CXCR4 expression, the proportion of CKIT^+CXCR4^+ and CXCR4^+EPCAM^+ cells increased to greater than 95% of the population. […] Endoderm induction in the EBs was influenced by the base culture media used. StemPro34 supported more efficient endoderm induction than neural basal media that we used previously (FIG. 1f). The induction of highly enriched endoderm is an important first step in the efficient and reproducible generation of hepatocyte-like cells from hPSCs.
(§1) Media was changed every 3 days.
Flow cytometric analyses were performed as described previously^45. […] Stained cells were analyzed using an LSRII flow cytometer (BD).

[2] = test system: day six EB-derived monolayer cells; test: Extended activin treatment of EB-derived monolayer cells, flow cytometry; format: cell-based, human
Method: FIG. 3A is an intracellular flow cytometric analysis showing the proportion of SOX17^+ and FOXA2^+ cells in day six activin/Wnt3A-induced EBs as well as in monolayer populations derived from them. The monolayer populations were cultured either directly in the specification media (−activin) or for two days in activin (50 ng/ml) and then in the specification media (+activin). Populations were analyzed following two or four days culture in the specification media (total days eight and 10 for the −activin group and days 10 and 12 for the +activin group). Bars represent standard deviation (SD) of the mean of three independent experiments.
FIG. 3E is a flow cytometric analysis showing the proportion of CD31^+ CD90^+ and EPCAM^+ cells in monolayer populations derived from activin treated (day 26) and non-treated (day 24) endoderm. […] In contrast, a higher portion of EPCAM^+ cells was detected in the population derived from the activin-treated endoderm compared to the population generated from the non-treated cells (EPCAM: 90.7+/−2.7% vs 56.8+/−7.3%; P<0.01, n=3).
It was not known if prolonged signaling would be useful with human PSC. The effect of increasing the duration of this signaling pathway was extended in the human system by culturing the monolayer cells for two days in activin prior to the FGF/BMP4 specification step. […] Without being bound by theory, since the total cell number was lower in the treated population (FIG. 3b) it is possible that activin signaling at this stage preferentially supports the survival of endodermal cells.
as §1
Flow cytometric analyses were performed as described previously^45. For cell surface markers, staining was carried out in PBS with 10% FCS. For intracellular proteins, staining was performed on cells fixed with 4% paraformaldehyde (Electron Microscopy Science, Hatfield, PA, USA) in PBS. Cells were permeabilized with 90% ice-cold methanol for 20 minutes for Sox17 and FoxA2 staining as previously described^45. Albumin and alpha-fetoprotein staining was performed in PBS with 10% FCS and 0.5% saponin (Sigma). Stained cells were analyzed using an LSRII flow cytometer (BD).

[3] = test system: H9 hESCs, H1 hESCs and 38-2 iPSCs; test: Hepatic specification from other hPSC lines, flow cytometry; format: cell-based, human
From the text: To determine whether the approach detailed above is broadly applicable to different human pluripotent stem cell lines the protocol was used to differentiate the hESC lines H9 and H1 as well as an induced pluripotent cell (iPSC) line 38-2 to a hepatic fate. Day six EBs from all three lines contained high proportions of CKIT^+CXCR4^+ and CKIT^EPCAM* cells following the Wnt3a/activin induction step (FIG. 7a). Although the proportion of EPCAIVT cells was high in all EBs, the H9-derived cells expressed substantially higher levels of EPCAM than cells generated from the other lines. The levels of EPCAM expression correlated with the degree of endoderm induction, as greater than 95% of the H9-derived population expressed SOX17^+ and FOXA2^+ whereas only 65-70% of the iPSC-derived cells expressed these transcription factors (FIG. 7a). These findings indicate that surface marker analysis alone is not sufficient to monitor endoderm development and that quantitative analyses of SOX17 and FOXA2 expression is required to measure induction of this germ layer. As observed with the HES2 cells, extended activin/nodal signaling improved hepatic development of the CKIT^+CXCR4^+ population from each line (FIG. 7b). However, the duration of activin treatment necessary to generate significant levels of ALB expression varied between cell lines. Whereas higher levels of ALB expression were achieved following two days of activin treatment with H9-derived cells, both H1 and 38-2 cells required four days of additional activin signaling. With this treatment, it was possible to generate cultures consisting of 90%, 85% and 70% ALB^+ cells from the H9, H1 and 38-2 cell lines, respectively (FIG. 7c).
as §1
Flow cytometric analyses were performed as described previously^45. For cell surface markers, staining was carried out in PBS with 10% FCS. For intracellular proteins, staining was performed on cells fixed with 4% paraformaldehyde (Electron Microscopy Science, Hatfield, PA, USA) in PBS. […] Stained cells were analyzed using an LSRII flow cytometer (BD).

hPSCs = test: Definitive endoderm induction with CHIR99021 replacing Wnt3a, flow cytometry; format: cell-based, human; conditions: in combination with activin
Method: CHIR99021 is a selective inhibitor of GSK3 that has been reported to mimic the canonical Wnt signal pathway. CHIR99021 was tested as a replacement of wnt3a (e.g. added in combination with activin) in inducing Embryoid bodies and monolayer induction for definitive endoderm cells from hPSCs. […] At day 0, the cells were cultured in a RPMI based medium supplemented with glutamine (2 mM), MTG (4.5×10^−4 M: Sigma), activin A (100 ng/ml), CHIR99021 (0.3 μM) or Wnt3a (25 ng/ml). […] The media was changed every the other day. At day 7, the definitive endoderm was specified to a hepatic fate by treatment with FGF and BMP pathway agonists, as described above.

other kinases = conditions: in vitro kinase assays; cited from earlier work
CFTR = target: T1, CFTR (Homo sapiens, UniProt P13569); test: Forskolin-induced swelling assay on hPSC-derived cystic structures; format: cell-based; conditions: hPSC-derived cysts
T1 construct: hPSC-derived cyst structures generated in 3D gels contain functional CFTR protein; endogenous in cells; host or cells: cysts from H9 hESC- and Y2-1 iPSC-derived cholangiocytes
T1 sequence (P13569 whole entry): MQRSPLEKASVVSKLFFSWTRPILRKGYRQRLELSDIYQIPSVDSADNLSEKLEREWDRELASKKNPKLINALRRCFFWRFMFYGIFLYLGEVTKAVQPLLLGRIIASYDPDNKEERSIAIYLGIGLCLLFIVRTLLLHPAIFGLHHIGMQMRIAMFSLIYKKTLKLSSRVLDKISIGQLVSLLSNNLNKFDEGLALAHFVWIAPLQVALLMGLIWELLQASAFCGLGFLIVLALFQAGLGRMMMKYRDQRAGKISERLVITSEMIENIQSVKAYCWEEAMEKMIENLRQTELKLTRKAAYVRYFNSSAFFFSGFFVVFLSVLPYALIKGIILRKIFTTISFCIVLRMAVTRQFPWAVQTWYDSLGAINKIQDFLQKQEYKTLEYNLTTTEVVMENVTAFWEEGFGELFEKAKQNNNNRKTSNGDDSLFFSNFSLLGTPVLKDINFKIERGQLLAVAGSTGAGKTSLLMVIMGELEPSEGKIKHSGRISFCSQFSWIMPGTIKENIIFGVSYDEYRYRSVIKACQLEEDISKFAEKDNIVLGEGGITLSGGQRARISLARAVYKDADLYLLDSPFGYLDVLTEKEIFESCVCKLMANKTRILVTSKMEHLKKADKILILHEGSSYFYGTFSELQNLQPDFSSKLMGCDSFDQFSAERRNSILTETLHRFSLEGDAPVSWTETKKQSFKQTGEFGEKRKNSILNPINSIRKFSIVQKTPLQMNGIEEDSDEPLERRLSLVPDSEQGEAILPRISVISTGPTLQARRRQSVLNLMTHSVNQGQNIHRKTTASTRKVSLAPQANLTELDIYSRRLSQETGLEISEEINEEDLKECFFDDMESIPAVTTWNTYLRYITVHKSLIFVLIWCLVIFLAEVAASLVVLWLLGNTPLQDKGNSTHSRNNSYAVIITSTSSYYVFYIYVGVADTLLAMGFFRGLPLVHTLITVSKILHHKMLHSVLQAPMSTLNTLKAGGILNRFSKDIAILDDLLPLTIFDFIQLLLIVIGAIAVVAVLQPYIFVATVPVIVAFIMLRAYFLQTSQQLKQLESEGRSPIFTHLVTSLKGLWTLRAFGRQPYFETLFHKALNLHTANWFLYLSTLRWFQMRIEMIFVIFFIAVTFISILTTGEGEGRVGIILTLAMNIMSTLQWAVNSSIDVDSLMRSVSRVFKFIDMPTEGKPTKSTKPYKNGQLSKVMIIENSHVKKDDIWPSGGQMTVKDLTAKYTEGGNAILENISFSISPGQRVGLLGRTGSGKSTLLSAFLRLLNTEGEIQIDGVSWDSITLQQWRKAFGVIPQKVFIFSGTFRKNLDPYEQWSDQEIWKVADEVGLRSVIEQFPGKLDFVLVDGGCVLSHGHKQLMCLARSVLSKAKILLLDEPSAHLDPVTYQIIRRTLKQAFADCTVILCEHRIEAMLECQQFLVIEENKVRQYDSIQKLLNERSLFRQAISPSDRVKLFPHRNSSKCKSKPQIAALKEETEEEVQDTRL
From the text: F/I stimulated cyst swelling was quantified using velocity imaging software. The total size of the cysts is normalized to that prior to F/I stimulation. Values are from three individual experiments.
With this assay, activation of the cAMP pathway by the addition of Forskolin/IBMX increases CFTR function resulting in fluid transport and swelling of the cyst. Swelling can be visualized following staining with calcein green, a cell-permeable fluorescent dye (FIG. 18a).

[4] = test system: iPSC-derived cholangiocytes; test: Cyst formation in 3D gel culture of iPSC-derived cholangiocytes; format: cell-based, human; conditions: normal iPSC-derived cholangiocytes
From the text: After embedding in collagen/Matrigel culture, cyst formation was induced from the aggregates by the addition of forskolin for the first week of the two-week culture period (left). Without forskolin stimulation, the CF-iPSCs derived cholangiocytes formed branched ductal structure rather than hollow cysts (right).
CF-iPSCs derived cholangiocytes were maintained in the 3D gel conditions in the presence or absence of forskolin for the first week of the two weeks culture period (left graph). Normal iPS cells-derived cholangiocytes were maintained in the presence or absence of CFTR inhibitor for the first week of the two-week culture periods (right graph). […] Addition of the CFTR inhibitor to normal iPSC-derived cholangiocytes delayed cyst formation (right graph).
Both hiPSC lines generated hepatoblast populations with kinetics similar to those observed for wild type hPSCs (FIG. 24a, b). […] However, many of the cysts that developed from the patient iPSC we not completely hollow, but rather contained branched ductal structures (FIG. 19c).

[5] = day 10/12, two days activin 50 ng/ml before specification media
[6] = monolayer from activin treated endoderm, day 26

Molecule: activin: Activin A, nodal agonist
- proportion co-expressing CXCR4 and CKIT or CXCR4 and EPCAM [1]: greater than 90%
- proportion of FOXA2+ cells [2, 5]: 92.7+/−2.5%
- proportion of SOX17+ cells [2, 5]: 73.3+/−7.5%
- proportion of FOXA2+ cells ([2]; days 8/10, two days activin 50 ng/ml before specification media): 96.1+/−0.9%
- proportion of CD31+ cells [2, 6]: 0.49+/−0.11%
- proportion of CD90+ cells [2, 6]: 8.5+/−1.19%
- proportion of EPCAM+ cells [2, 6]: 90.7+/−2.7%
- ALB+ cells ([3]; 38-2, four days additional activin): 70%
- ALB+ cells ([3]; H1, four days additional activin): 85%
- ALB+ cells ([3]; H9, two days additional activin): 90%

Molecule: Cc1c[nH]c(-c2cnc(NCCNc3ccc(C#N)cn3)nc2-c2ccc(Cl)cc2Cl)n1 [CHIR 99021]
- proportion of CKIT+CXCR4+ and CXCR4+EPCAM+ cells (hPSCs): greater than 95%
- effect on other kinases (other kinases): little effect

Molecule: O=C(O)c1ccc(/C=C2\SC(=S)N(c3cccc(C(F)(F)F)c3)C2=O)cc1 [CFTRinh-172]
- effect on Forskolin/IBMX induced swelling (CFTR): blocked
- cyst formation [4]: delayed
